System: mouse bone marrow-derived cultured mast cells (BMMC)
Assay: Inhibition of histamine release from IgE-sensitized, DNP-HSA-stimulated mouse mast cells
Type: cell-based
Settings: for Ratio of Histamine Release Inhibiting Effect %: sample at 10 μg/ml, relative to distilled water control
Method: In order to determine the anti-allergic activity (type I allergy), inhibitory activity on the release of histamine from mouse mast cells was used as an indicator. The histamine release inhibitory effect was investigated by using mouse bone marrow-derived cultured mast cells (BMMC). The cells were cultured in a RPMI1640 medium supplemented with 10% heat inactivated FBS (fetal bovine serum), 3 ng/ml of interleukin-3 (IL-3), 5 mM […], and 50 μM 2-mercaptoethanol. The cells (1×10^7 cells/ml) were sensitized anti-DNP mouse IgE antibody overnight, then, on the following day, suspended in a Tyrode solution and incubated with the test samples for 10 minutes, degranulation was induced by adding DNP-HSA (antigen) (20 minutes), and the amount of histamine in the supernatant fluid was determined using liquid chromatography. An LC-10A (manufactured by Shimadzu Corporation) was used as the measuring instrument, and […] was used as the column. Isocratic analysis was conducted under the following conditions: flow rate of 0.5 ml/min; injection amount of 20 μl; temperature of the column oven of 37° C.; detector RF ([…], em. 430 nm). The anti-allergic activity was determined to be high when the relative value to distilled water, which was a control, was lower.

Row | Compound | Ratio of Histamine Release Inhibiting Effect % | anti-allergic activity (among the compounds of general formula (1), summary statement) | histamine release inhibiting effect relative to that of EGCG3″Me (beverages containing 2 μg/ml and 10 μg/ml, FIG. 2) | histamine release inhibiting effect when added to Yabukita hot-water extract (final additive concentration 0.1 to 50 μg/ml in Yabukita hot-water extract, FIG. 4)
1 | epigallocatechin-3-O-gallate [EGCG, reference compound] | 7.63% | – | – | –
2 | COc1cc(C(=O)O[C@@H]2Cc3c(O)cc(O)cc3O[C@@H]2c2ccc(O)c(O)c2)cc(O)c1O [ECG3″Me, epictechin-3-O-(3-O-methyl)gallate] | 46.79% | especially strong anti-allergic activity | approximately 1.5 times | can increase the anti-allergic activity more than EGCG3″Me
3 | epigallocatechin-3-O-(3-O-methyl)gallate [EGCG3″Me, reference compound] | 29.6% | – | – | –

From patent US20100160425A1, “ANTI-ALLERGIC AGENT AND BEVERAGE/FOOD, PREPARATION FOR EXTERNAL APPLICATION OR COSMETIC COMPRISING THE AGENT” (priority 2006, published 2010)
